Measured values taken from patent publication EP2802310B1, “NEW USE OF ZERUMBONE AND COMPOSITIONS COMPRISING ZERUMBONE” (Sederma, priority 2012, dated 2013).
Like-named read-outs stand apart in the source and are kept apart here.

Experiments:
[1] = tested on: Human preadipocytes; test: Anti-differentiating effect, intracellular G3PDH activity, human preadipocytes; type: cell-based
Method: Human preadipocytes were plated and induced to differentiate at confluence in the presence of a cocktail of specific inducers and the evaluated products. After 10 days, the layers were crushed and intracellular G3PDH activity was assayed. A cell quantification test (Hoechst) on the same extracts complements the assay.

[2] = tested on: Human preadipocytes; test: Triglyceride content after preadipocyte differentiation (glycerol released after lipase); type: cell-based; details: 10 days
Method: Human preadipocytes were plated and induced to differentiate at confluence in the presence of a cocktail of specific inducers and evaluated products. After 10 days, the triglyceride content of the culture was estimated by measuring the released glycerol after the action of a lipase.

[3] = tested on: Mature human adipocytes; test: Lipolytic effect, daily titration of released glycerol over 3 days; type: cell-based; details: Homo sapiens, Adipocyte, Zerumbone 6ppm, read-out: released glycerol, versus negative control
Method: Mature human adipocytes were treated with zerumbone to evaluate daily for 3 days. A daily titration of the released glycerol, reflecting lipolysis, was measured in the medium, before the media were changed in order to monitor the long-term effect.
In a second test, mature human adipocytes were treated with the product to evaluate daily for 3 days. A daily titration of the released glycerol was performed in the media, just before changing of the media in order to monitor the long term effect. Table 19: Comparison of the lipolytic effect of caffeine, zerumbone and of a mixture of caffeine and zerumbone on hypertrophied adipocytes in monolayer (n=4) at short and long term.

[4] = tested on: adiponectin; test: Adiponectin synthesis by ELISA, 3 days contact; type: cell-based, Human
Method: Human preadipocytes were plated and induced to differentiate at confluence in the presence of a cocktail of specific inducers. After 10 days of differentiation, the cells are purged from inducers in their basis medium and left in contact with the products for 3 days in this medium. After contact, the supernatants were collected and the adiponectin amount was measured by ELISA.

[5] = tested on: IL6; test: IL6 synthesis by ELISA in adipocyte supernatants; type: cell-based; details: Homo sapiens
Method: Human preadipocytes were seeded and induced to differentiate in the presence of a cocktail of specific inducers and the evaluated products. At the end of differentiation (at 7 and 10 days), the IL6 content synthetized by the adipocytes is measured in the culture supernatants by ELISA method. Furthermore, after 10 days of differentiation, mature adipocytes are placed in contact of the products during 72h and the IL6 content is also measured in the cellular supernatants. In parallel, survival estimation was realized on these two assays (Hoechst tests).

[6] = tested on: elastin; test: Elastin fibres in skin explants under NO stress (Verhoeff stain); details: 18 ppm
Method: Principle: Explants (person, abdominal skin) received a topical cream containing the product of the invention (cream according to above example 1 at 18ppm of zerumbone) or a placebo cream (same cream without zerumbone) for two days. At the same time, the culture medium received 18ppm of zerumbone in a liquid form (or its excipient) to potentiate the effects. A NO stress was later applied for 24 hours using an NO donor (NOC-5) integrated in the culture medium. Finally, the product was again applied on the explants and in the culture medium for two days.
Counting was done using photos (50 photos/case) by filtering the colours.

[7] = tested on: elastin; test: Elastin synthesis in fibroblasts under NO stress, ELISA; type: cell-based; details: Homo sapiens, Fibroblast, NHF, compared to the control case following the same NO, read-out: protection of elastin synthesis
[8] = tested on: Fibromodulin; test: Fibromodulin synthesis in NHF, ELISA; type: cell-based, human; details: two days
Method: (§1) Principle: NHFs were put into contact with the product of the invention for two days (fibromodulin) or three days (dermatopontin). The supernatants were then assayed using ELISA tests. At the same time, the number of cells was quantified using the Hoechst method.

[9] = tested on: Dermatopontin; test: Dermatopontin synthesis in NHF, ELISA; type: cell-based, human; details: three days
Method: as §1

[10] = tested on: MMP1; test: MMP1 synthesis in NHF after UVA, ELISA; type: cell-based, human; details: 24h before and 24h after UVA
Method: Principle: NHFs were put into contact with the product of the invention for 24h, and then were radiated with UVA rays to trigger an experimental increase in MMP1 synthesis. The cells once again received the product for 24h and the supernatants were assayed using ELISA tests. At the same time, the number of cells was quantified using the Hoechst method.

[11] = tested on: Cathepsin-S; test: Cathepsin-S in NHF under NO stress, ELISA; type: cell-based, human; details: NO stress (NOC-5)
Method: Principle: NHFs were put into contact with the invention product for 24h then were subjected to NO stress. NO donor, NOC-5, was introduced in the culture medium. At the end of a second 24h contact with the zerumbone extract, a cathepsin-S assay was performed using ELISA. At the same time, the number of cells was quantified using the Hoechst method.

[12] = tested on: elastase; test: Dermal destruction by proteases in skin explants, elastase; details: 18ppm of zerumbone co-injected with the protease; five days at 37°C; confocal microscope
Method: (§2) Principle: Once prepared, skin explants (person, abdominal skin) received an injection of elastase or collagenase that could proteolyse 30 µmol/min of elastin or collagen. In another case, the invention product (titrated at 18ppm of zerumbone) was co-injected with the protease to assess its ability to inhibit the proteolysis of constituents of the dermis, and thus of protection of the dermis. After five days of incubation at 37°C, the result was observed through a confocal microscope and compared to what was obtained in the case without protease at the same depth (60 µm).

[13] = tested on: collagenase; test: Dermal destruction by proteases in skin explants, collagenase; details: 18ppm of zerumbone co-injected with the protease; five days at 37°C; confocal microscope
Method: as §2

[14] = 72 h, adipocytes after differenciation (3days), read-out: IL6 % Var / control

Q: For `C/C1=C\CC(C)(C)/C=C/C(=O)/C(C)=C/CC1` [Zerumbone, 2E, 6E, 9E-Humulatrien-8-one], which “[G3PDH]” value ([1]; 0.5ppm, 10 days) is on record?
A: 144 +/- 15 mU/ 10^6 cell

Q: And the “[G3PDH]” value ([1]; 1ppm, 10 days)?
A: 106 +/- 14 mU/ 10^6 cell

Q: What about the “[G3PDH]” value ([1]; 3ppm, 10 days) of the same molecule?
A: 30 +/- 2 mU/ 10^6 cell

Q: What about the “G3PDH activity and human preadipocytes differentiation” value ([1]; 5 ppm of extract) of the same molecule?
A: complete inhibition

Q: And the “[G3PDH]” value ([1]; 5ppm, 10 days)?
A: 15 +/- 3 mU/ 10^6 cell

Q: And the inhibition at 0.5 ppm ([1]; Homo sapiens, 240 h, 0.5ppm, 10 days, read-out: [G3PDH] % Var / control)?
A: 18%

Q: And the inhibition at 1 ppm ([1]; Homo sapiens, 240 h, 1ppm, 10 days, read-out: [G3PDH] % Var / control)?
A: 39%

Q: And the inhibition at 3 ppm ([1]; Homo sapiens, 240 h, 3ppm, 10 days, read-out: [G3PDH] % Var / control)?
A: 83%

Q: What about the inhibition at 5 ppm ([1]; Homo sapiens, 240 h, 5ppm, 10 days, read-out: [G3PDH] % Var / control) of the same molecule?
A: 91%

Q: And the “[TG]” value ([2]; 3ppm)?
A: 3562 +/- 233 µ U/ 10^6 cell

Q: And the “[TG]” value ([2]; 5ppm)?
A: 2966 +/- 128 µ U/ 10^6 cell

Q: And the inhibition at 3 ppm ([2]; Homo sapiens, 240 h, 3ppm, read-out: [TG] % Var / control)?
A: 15%

Q: What about the inhibition at 5 ppm ([2]; Homo sapiens, 240 h, 5ppm, read-out: [TG] % Var / control) of the same molecule?
A: 29%

Q: And the activation at 6 ppm ([3]; 24 h, contact time 1 day)?
A: 72%

Q: And the activation at 6 ppm ([3]; 48 h, contact time 2 days)?
A: 141%

Q: What about the activation at 6 ppm ([3]; 72 h, contact time 3 days) of the same molecule?
A: 246%

Q: And the “[Adiponectin]” value ([4]; 2ppm)?
A: 221.4 +/- 24.5 ng/10^E6 cell

Q: And the “[Adiponectin]” value ([4]; 6ppm)?
A: 19.0 +/- 0.6 ng/10^E6 cell

Q: What about the activation at 2 ppm ([4]; Homo sapiens, 72 h, 2ppm, read-out: [Adiponectin] % Var / control) of the same molecule?
A: 45%

Q: What about the activation at 6 ppm ([4]; Homo sapiens, 72 h, 6ppm, read-out: [Adiponectin] % Var / control) of the same molecule?
A: 95%

Q: What about the inhibition at 3 ppm [5, 14] of the same molecule?
A: 33%

Q: And the inhibition at 5 ppm [5, 14]?
A: 31%

Q: What about the inhibition at 3 ppm ([5]; 240 h, adipocytes in the course of differenciation (10days), read-out: IL6 % Var / control) of the same molecule?
A: 49%

Q: What about the inhibition at 5 ppm ([5]; 240 h, adipocytes in the course of differenciation (10days), p=0.09, read-out: IL6 % Var / control) of the same molecule?
A: 50%

Q: And the Elastin ([6]; cream and culture medium, NO stress (NOC-5) 24 hours)?
A: 2.41 ± 1.40 UCA

Q: And the “Elastin % Variation” value ([6]; versus Control NO (Reference 2))?
A: +104%; p<0.01

Q: And the activation at 5 ppm [7]?
A: 179%

Q: What about the Fibromodulin ([8]; 5 ppm) of the same molecule?
A: 51.4 ± 13.4 ng/106cell.

Q: And the activation at 5 ppm ([8]; Homo sapiens, 48 h, read-out: Fibromodulin % Variation)?
A: 268%

Q: And the Dermatopontin ([9]; 5 ppm)?
A: 2540 ± 361 ng/106cell.

Q: What about the activation at 5 ppm ([9]; Homo sapiens, 72 h, read-out: Dermatopontin % Variation) of the same molecule?
A: 137%

Q: And the MMP1 ([10]; 5 ppm)?
A: 691 ± 225 ng/106cell.

Q: What about the inhibition at 5 ppm ([10]; Homo sapiens, Fibroblast, light or radiation study, read-out: MMP1 % Variation) of the same molecule?
A: 51%

Q: And the Cathepsin-S ([11]; 5 ppm)?
A: 290 ± 40 pg/106cell.

Q: And the inhibition at 5 ppm ([11]; Homo sapiens, Fibroblast, read-out: Cathepsin-S % Variation)?
A: 34%

Q: What about the “integrity of the dermis under elastase stress” value [12] of the same molecule?
A: retains its integrity

Q: And the “integrity of the dermis under collagenase stress” value [13]?
A: retains its integrity
